# Laboratory results published in patent US10550143B2, “C,O-spiro aryl glycoside compounds, preparation therefor and use thereof” (SHANGHAI INSTITUTE OF MATERIA MEDICA, CHINESE ACADEMY OF …, priority 2015, dated 2020).
# Assays:
# [1] = test system: SD rats; test: Acute single administration, urinary glucose changes in SD rats; type: in vivo, rat; set-up: Urine glucose concentration / The total amount of glucose excreted: unit not given here; conditions: 1 mg/kg oral, after 24 h
# Method: (1) Acutely Administering Compound to Observed the Urinary Glucose Changes in SD Rats
# Thirty-eight male normal SD rats were selected and randomly divided into 5 groups according to body weight and blood glucose, 6-8 in each group. […] After oral gavage, the rats were placed in rats metabolic cages, and urine was collected after 24 h, and the urine volume was recorded, the urine sugar concentration was determined, and urinary sugar content was calculated according to the following formula. Urine content=urinary sugar concentration×urine volume
# Glucose levels in urine are measured by the glucose assay kit.
# Data were expressed as mean±standard deviation (x±s), and Student's t test was used for statistical analysis of the data, p<0.05 was considered statistically significant.
# [2] = target: T1, human sodium-glucose cotransporter 2 (SGLT2) (Homo sapiens, UniProt P31639); test: In vitro SGLT2 inhibition, methyl-α-D-[U-14C]glucopyranoside uptake in NIH3T3-hSGLT2 cells; type: cell-based
# T1 construct: expressed in transfected cells; host or cells: NIH3T3 (mouse fibroblast) cells expressing hSGLT2
# T1 sequence (P31639 1-672): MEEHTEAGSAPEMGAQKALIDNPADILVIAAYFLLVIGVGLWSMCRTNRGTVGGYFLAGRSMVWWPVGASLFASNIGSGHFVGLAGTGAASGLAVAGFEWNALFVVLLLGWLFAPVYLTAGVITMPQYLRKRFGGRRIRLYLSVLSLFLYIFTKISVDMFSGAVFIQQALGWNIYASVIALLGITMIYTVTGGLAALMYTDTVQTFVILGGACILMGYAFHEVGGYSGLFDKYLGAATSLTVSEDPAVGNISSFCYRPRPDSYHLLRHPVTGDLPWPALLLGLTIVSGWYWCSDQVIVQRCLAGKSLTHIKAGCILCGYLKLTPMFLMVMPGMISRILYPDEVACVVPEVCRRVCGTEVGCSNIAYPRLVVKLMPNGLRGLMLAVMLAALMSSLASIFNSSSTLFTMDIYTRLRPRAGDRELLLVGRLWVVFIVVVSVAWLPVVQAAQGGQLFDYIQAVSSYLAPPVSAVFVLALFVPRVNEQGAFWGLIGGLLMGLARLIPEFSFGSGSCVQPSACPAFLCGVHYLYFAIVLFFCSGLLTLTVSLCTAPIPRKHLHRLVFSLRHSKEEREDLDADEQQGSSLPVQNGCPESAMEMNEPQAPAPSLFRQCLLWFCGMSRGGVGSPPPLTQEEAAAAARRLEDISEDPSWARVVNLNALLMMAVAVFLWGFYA
# Outline: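 NIH3T3-hSGLT2 cells (40000/well, gelatin-coated, 2 mM sodium butyrate the next day) were preincubated 30 min in KRH-Na+, then given compound plus uptake buffer with methyl-α-D-[U-14C]glucopyranoside and ⅙ mM methyl-α-D-glucopyranoside. Uptake was read by scintillation counting, with KRH-acetylcholine as background.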
smiles,measurement,setting,value
"CCc1ccc(Cc2cc3c(cc2Cl)CO[C@]32O[C@H](C)[C@@H](O)[C@H](O)[C@H]2O)s1 [Example A28, (1S,3′R,4′S,5′S,6′R)-6′-methyl-6-((5-ethylthienyl)-2-methyl)-5-chloro-3′,4′,5′,6′-tetrahydro-3H-spiro[isobenzofuran-1,2′-pyran]-3′,4′,5′-triol]",The total amount of glucose excreted,[1]; Table 3,337.10 ± 313.7
same,Urine glucose concentration,[1]; Table 3,76.29 ± 71.20
same,Urine volume,"[1]; Table 3, in mL",24 ± 6.63
same,Selectivity,[2]; IC50 SGLT1/IC50 SGLT2,1450
same,inhibition at 0.01 µM,"[2]; SGLT2, 10 nM, read-out: % Inhibition rate ± SD 10 nM",67 ± 4.9%
same,inhibition at 0.1 µM,"[2]; SGLT2, 100 nM, read-out: % Inhibition rate ± SD 100 nM",86.1 ± 2.4%
same,IC50,[2]; read-out: IC50 ± SD SGLT2,1.42 ± 0.2 nM
